The test system of assay [1] is CD151 expression in EmGFP-positive cells induced from human iPS cell line (1390D4 strain). Briefly: Sorting of atrial myocyte population based on CD151 expression level (flow cytometry). Type of assay: cell-based. The conditions noted are these: 3 μM LY411575 from day 8 to day 20 of differentiation, mean ± standard error. The procedure:
A cell population containing cardiomyocytes was induced from iPSC under atrial myocyte differentiation conditions or ventricular myocyte differentiation conditions. As iPSC, a double knock-in human iPS cell line (1390D4 strain) was used, in which EmGFP was inserted into the TNNI1 locus and mCherry was inserted into the TNNI3 locus as reporter proteins.
To differentiate iPSC into cardiomyocytes, iPSC was seeded into low-adhesion 6-well plates (2×10^6 cells/1.5 ml/well) and statically cultured at 37° C. and 5% oxygen to form embryoid bodies (day 0). The culture medium used was StemPro-34 SFM (Thermo Fisher Scientific) supplemented with 1% L-glutamine, 150 μg/ml transferrin, […] ascorbic acid, 4×10^-4 M monothioglycerol, 10 μM Rock inhibitor (Y-27632), 2 ng/ml BMP4, and 0.5% Matrigel. […]
On the 20th day of culture, the cell population containing atrial myocytes was dispersed into single cells and the cell number was counted. […] CD151 expression in EmGFP-positive cells was analyzed using a flow cytometer (BD FACS Aria Fusion cell sorter). The fluorescence intensity of 95% or more of the negative control cells was set as the threshold, and the cell subpopulations showing fluorescence intensity lower than the threshold were defined as “CD151-low” and the cell subpopulations showing fluorescence intensity higher than the threshold were defined as “CD151-high”. […]
On the technique in general: In flow cytometry, cells or beads pass a laser one at a time.

Assay [2] has as its system HEY2 (target gene of Notch signal). Put plainly: Expression analysis of the target gene of Notch signal (HEY2) in sorted cell subpopulations. The conditions noted are these: both CD151-high and CD151-low, compared to DMSO-added control. Type of assay: cell-based, human. The procedure:
(§1) On the 6th day of differentiation, the medium was replaced with cardiomyocyte induction medium 3, and from the 8th day of differentiation onwards, 3 μM of γ-secretase inhibitor (LY411575) that inhibits Notch signaling was added when changing the medium, and the cells were cultured at 37° C. under 5% oxygen conditions until the 10th day. Cells added with 0.1% DMSO were also prepared as a control. Thereafter, the medium was changed on the 10th, 13th, 15th, and 17th days, and after the medium change on the 10th day, the cells were cultured under normal oxygen conditions until the 20th day. As the cardiomyocyte induction medium 3, StemPro-34 SFM supplemented with 1% L-glutamine, 150 μg/ml transferrin, 50 μg/ml ascorbic acid, 4×10^-4 M monothioglycerol, and 5 ng/ml VEGF was used.
(§2) The expression of marker genes indicating Notch signal activity and atrial myocyte markers was analyzed for the cardiomyocyte subpopulations “DMSO/CD151-high”, “DMSO/CD151-low”, “Notch inhibitor/CD151-high”, and “Notch inhibitor/CD151-low” obtained in Experimental Example 2.
(§3) According to the conventional method, total RNA was extracted from each cell subpopulation and expression analysis was performed for the target gene of Notch signal (HEY2) and the marker genes of atrial myocytes (NR2F1, NR2F2, NPPA, KCNA5, KCNJ3, TBX5 and MYL7). […]

In assay [3] the test system is marker genes of atrial myocytes (NR2F1, NR2F2, NPPA, KCNA5, KCNJ3, TBX5 and MYL7). Briefly: Expression analysis of atrial myocyte marker genes in sorted cell subpopulations. Type of assay: cell-based, human. The conditions noted are these: both CD151-high and CD151-low, compared to DMSO-added control population. The procedure: as §1, §2, §3
Assay [4] deals with cardiomyocyte subpopulations differentiated from human iPS cells. Put plainly: Proportion of atrial myocytes by whole-cell patch clamp electrophysiology. To be noted: for atrial myocytes (%): APD 30/90 less than 0.3 and dv/dtmax 10 or more. Format: cell-based. The protocol:
as §1
The proportion of atrial myocytes was determined by an electrophysiological method for the “Notch inhibitor/CD151-high” and “Notch inhibitor/CD151-low” cardiomyocyte subpopulations obtained in Experimental Example 2.
Each cell subpopulation was cultured on a fibronectin-coated cover glass. Culture was performed at 37° C. under normal oxygen conditions using StemPro-34 SFM supplemented with 1% L-glutamine, 150 μg/ml transferrin, 50 ug/ml ascorbic acid, 4×10^-4 M monothioglycerol, and 5 ng/ml VEGF, with medium change every 3 days. Cells on the 15th and 16th days of culture were subjected to electrophysiological analysis.
Analysis was performed using the whole-cell patch clamp method using Axopatch 200B amplifier (Molecular Devices) and pCLAMP software. Electrodes were made with glass capillaries (WPI) using a micropipette puller and filled with intracellular solution (130 mM KOH, 130 mM L-aspartic acid, 20 mM KC1, 5 mM NaCl, 10 mM HEPES, 5 mM Mg-ATP, 10 mM EGTA, 1 mM MgC12, PH 7.2). Experiments were performed at 35-37° C. while perfusing Gey's balanced salt solution (Sigma) as the extracellular solution. The spontaneous action potential of each cell was recorded for 1 min in current clamp mode. APD30, APD90, and maximum velocity of waveform rise (dv/dtmax) were calculated from the average waveform of 8-10 consecutive waveforms. Cells showing a waveform with APD 30/90 of less than 0.3 and dv/dtmax of 10 or more were defined as atrial myocytes. Cells showing a waveform with APD 30/90 of 0.3 or more and dv/dtmax of 10 or more or dv/dtmax of less than 10 were classified as other cells. […]

Setting [5] is: CD151-high subpopulation, n = 19.
Setting [6] is: CD151-low subpopulation, n = 20.

With `C[C@H](NC(=O)[C@@H](O)c1cc(F)cc(F)c1)C(=O)N[C@@H]1C(=O)N(C)c2ccccc2-c2ccccc21` [Notch inhibitor], in assay [1], the “Cell population (%) CD151-high” value stood at 39.9 ± 3.3% and the “Cell population (%) CD151-low” value was 60.1 ± 3.3%. The “expression of the HEY2 gene” value in assay [2] is “reduced”. In addition, the “expression of atrial myocyte markers” value in assay [3] is recorded as “increased”. In assay [4] (setting [5]), the “other cells (%)” value was 68% and the “atrial myocytes (%)” value amounted to 32%. Also, in assay [4] (setting [6]), the “other cells (%)” value came out at 20% and the “atrial myocytes (%)” value was determined as 80%.

The values are drawn from patent publication US20260043007A1, “METHOD FOR PRODUCING CARDIAC MUSCLES” (Kyoto University, priority 2022, published 2026).
